Test results from patent publication US20060178318A1, “Use of aurora kinase inhibitors for reducing the resistance of cancer cells” (priority 2003, published 2006).

Experiments:
tubulin = conditions: compared with paclitaxel; cited from earlier work
HeLa cells [1] = conditions: stated as known; cited from earlier work
HeLa cells [2] = experiment: Taxol sensitivity assay (apoptosis, propidium iodide staining and flow cytometry); format: cell-based, human; conditions: Aurora-A-overexpressing vs mock-transfected HeLa cells, different concentrations of Taxol for 72 hr, FIG. 1
Experimental: 2×10^5 cells in complete growth medium were plated in a 35 mm dish before transfection using the Gene Juice transfection reagent (Novagen, United Kingdom) according to the manufacturer's protocol. GFP-expressing cells were flow sorted as before, 48 hr after transfection. Equal numbers of flow sorted mock-transfected or Aurora-A-transfected HeLa cell were plated on 6 well plates in DMEM (Life Technologies, Grand Island, N.Y.) containing 10% FBS. Taxol (Sigma Chemical Co.) at different concentrations was added fresh from a stock prepared in DMSO. The cells were exposed to the drug for 72 hr after which they were analyzed by propidium iodide staining and flow cytometry as described earlier. Cells collected at the indicated time points were centrifuged at 1000 rpm for 5 min at room temperature. 1×10^6 cells were resuspended in 0.5 ml PBS, fixed by adding 4.5 ml of ice-cold 70% ethanol, and incubated overnight in fixative at 4° C. Before analysis, fixed cells were washed in PBS and incubated with propidium iodide staining solution (0.1% Triton.X-100, PBS; 0.02 mg/ml propidium iodide; 0.2 mg/ml RnaseA) for 30 min at room temperature. […] Ten thousand events were analyzed per sample. […] The percentage of apoptotic cells was then measured using propidium iodide staining and flow cytometry to enumerate the sub G1 (<2N DNA content) population.

A-nor-paclitaxel
tubulin-assembly activity relative to paclitaxel (tubulin): only three times less than that of paclitaxel

CC(=O)O[C@H]1C(=O)[C@@]2(C)[C@H]([C@H](OC(=O)c3ccccc3)[C@]3(O)C[C@H](OC(=O)[C@H](O)[C@@H](NC(=O)c4ccccc4)c4ccccc4)C(C)=C1C3(C)C)[C@]1(OC(C)=O)CO[C@@H]1C[C@@H]2O [paclitaxel]
sensitivity of HeLa cells to Taxol-induced apoptosis (HeLa cells [1]): highly sensitive
resistance to paclitaxel-induced apoptosis (percentage of apoptotic cells, sub G1 population) (HeLa cells [2]): striking increase in resistance
